From the NIST ThermoML archive (doi:10.1016/j.tca.2016.08.021)

Columns and labels:
[1] = 100 kPa, Liquid; for viscosity: Capillary tube (Ostwald / Ubbelohde) method; for mass density: Vibrating tube method
[2] = xn = mol fraction of the nth substance listed; settings: 100 kPa, Liquid; for viscosity: Capillary tube (Ostwald / Ubbelohde) method; for mass density: Vibrating tube method

CCNCCO [2-(ethylamino)ethanol]
[1]
Settings | mass density [kg/m3] | viscosity [mPa·s]
293.15 K | 916.8 | 15.39
303.15 K | 909.7 | 9.65
313.15 K | 901.3 | 6.64
323.15 K | 894.7 | 4.53
333.15 K | 887.2 | 3.36

CCNCCO [2-(ethylamino)ethanol] + CCN(CC)CCO
[2]
Settings | mass density, 293.15 K [kg/m3] | mass density, 303.15 K [kg/m3] | mass density, 313.15 K [kg/m3] | mass density, 323.15 K [kg/m3] | mass density, 333.15 K [kg/m3] | viscosity, 293.15 K [mPa·s] | viscosity, 303.15 K [mPa·s] | viscosity, 313.15 K [mPa·s] | viscosity, 323.15 K [mPa·s] | viscosity, 333.15 K [mPa·s]
x2 = 0 | 916.8 | 909.7 | 901.3 | 894.7 | 887.2 | 15.39 | 9.65 | 6.64 | 4.53 | 3.36
x2 = 0.2 | 910 | 903 | 894.8 | 887.8 | 880.6 | 12.19 | 7.84 | 5.35 | 3.85 | 2.88
x2 = 0.4 | 903 | 895.5 | 887.6 | 880 | 872.1 | 9.87 | 6.51 | 4.5 | 3.3 | 2.48
x2 = 0.6 | 897 | 889 | 880.2 | 872.2 | 864.3 | 8.04 | 5.4 | 3.78 | 2.8 | 2.14
x2 = 0.8 | 889.7 | 881.6 | 873 | 864.6 | 856.4 | 6.36 | 4.36 | 3.11 | 2.31 | 1.79

CCN(CC)CCO [(diethylamino)ethanol] + CCNCCO
[2], x1 = 1
Settings | mass density [kg/m3] | viscosity [mPa·s]
293.15 K | 883.5 | 4.81
303.15 K | 875.1 | 3.37
313.15 K | 866.2 | 2.46
323.15 K | 857.5 | 1.86
333.15 K | 849.2 | 1.46
